Source: patent publication EP0563345B1, “NOVEL 4-ARYLPIPERAZINES AND 4-ARYLPIPERIDINES” (MCNEILAB, INC., priority 1991, dated 1993)
Structures can show the parent of a compound that is named as a salt.

Experiments:
Male Charles-River rats = experiment: Rat Glass Bead Test (propulsive motility of the distal colon); assay type: in vivo; conditions: mean expulsion time of glass bead
Male, Fischer 344 rats = experiment: Block of Conditioned Avoidance Responding (Rat) test (CAR); conditions: for CAR 5 mg/kg IP Administration (% change CAR) / CAR 15 mg/kg IP Administration (% change CAR): negative number = blockade of CAR
From the text: Apparatus: Rat operant chambers, housed within sound attenuated booths, both from Capden Instruments Ltd., were used in this test. The test chamber (8" H x […] D) is constructed of aluminum and plexiglass with floor grid bars of stainless-steel (1/8" O.D.) spaced 9/16" apart. A stainless-steel operation level 1-1/2" wide projects 3/4" into the chamber and is positioned 2-2/8" above the grid floor. The shock stimulus is delivered via the grid floor by a Coulbourn Instruments solid state module. The parameters of the test and the collection of data are controlled automatically.
The rats are trained for two weeks to approach criterion levels in the avoidance test (90% avoidance rate). One-hour training sessions are run at about the same time each day for four or five days a week. The training session consists of 120 trials, with the conditioned stimuli presented every 30 sec. A trial begins with presentation of the conditioned stimuli (a light and a tone). If the rat responds by depressing the operant lever during the 15-second presentation of the conditioned stimuli, the trial is terminated and the animal is credited with a CAR. Failure to respond during the conditioned stimuli causes the presentation of the unconditioned stimulus (UCS), a 0.7 mA shock which is accompanied by a light and tone for five seconds. If the rat depressed the lever within the ten-second period, the shock and trial are terminated and an escape response recorded. If the rat fails to depress the lever during the UCS (shock), the trial is terminated after ten seconds of shock and the absence of a response is scored as a failure to escape. Intertrial level presses have no effect. If a rat performs at the 90% CAR level for two weeks, it is then run twice a week on the test schedule (see below) until baseline performance stabilized.
Trained rats are run in a one-hour session on two consecutive days at the same time and in the same test chamber each day. The sessions consist of 60 trials, one every minute. The conditioned stimuli are presented for 15 sec (maximum) and the unconditioned stimuli five sec (maximum). On Day 1, a vehicle solution is administered to the rats at a time preceding the trial run corresponding to the pretreatment time for the test compound. The route of administration and the volume of vehicle are also matched to that of the test compound.
The percent change in CAR on the drug treatment day compared to vehicle pretreatment day is the key measure. The percent change (% change) in CAR is determined using the following formula: % change CAR = ((% CAR for Day 2/% CAR for Day 1) x 100)-100 [formula]
A negative number indicates a blockade of CAR, whereas a positive number would indicate increased CAR. The test results are reported as the mean % change for the group of rats. Failure to escape, a measure of the general sedative potential of the compound, was calculated for each animal as follows: % Failures = # of Failures to Escape/# of trials [formula]
The % failures, viz., loss of escape, is also reported as a group mean. Failures to escape are monitored closely and a session is terminated if ten failures occurred.
In the Tables and formulas therein, OiPr is isopropoxy, Me is methyl, MeO is methoxy, Et is ethyl, Ph is phenyl, n-Bu is normal butyl, cC6H11 is cyclohexyl, BOC is t-butyloxycarbonyl, Ac is acetyl, and NT is not tested in that partcular test. The escape loss numbers are shown at CAR 5 mg/kg unless otherwise noted.

[1] = molecular target: T1, D-2 (dopamine-2) receptors (Rattus norvegicus, UniProt P61169); experiment: biochemical; assay type: binding, male, Wistar rats; conditions: rat striatum P2 fraction, 3H-spiperone 0.05 nM; read-out: Receptor Binding (Ki nM) D2
T1 construct: The D2 assay employed a P2 fraction from the striatum, the ligand ^3H-spiperone at a concentration of 0.05 nM; from tissue; host or cells: rat striatum, P2 fraction (synaptosomal membranes), male Wistar rats
Experimental: The dopamine D2 binding activity of compounds was determined using a P2 fraction (synaptosomal membranes) prepared from male, Wistar rats.
The data from this assay were analyzed by calculating the percent inhibition of the binding of the tritiated ligands by given concentrations of the test compound. Kl values, where given, were obtained from the logit analysis of concentration-inhibition curves.

T1 sequence (P61169 whole entry): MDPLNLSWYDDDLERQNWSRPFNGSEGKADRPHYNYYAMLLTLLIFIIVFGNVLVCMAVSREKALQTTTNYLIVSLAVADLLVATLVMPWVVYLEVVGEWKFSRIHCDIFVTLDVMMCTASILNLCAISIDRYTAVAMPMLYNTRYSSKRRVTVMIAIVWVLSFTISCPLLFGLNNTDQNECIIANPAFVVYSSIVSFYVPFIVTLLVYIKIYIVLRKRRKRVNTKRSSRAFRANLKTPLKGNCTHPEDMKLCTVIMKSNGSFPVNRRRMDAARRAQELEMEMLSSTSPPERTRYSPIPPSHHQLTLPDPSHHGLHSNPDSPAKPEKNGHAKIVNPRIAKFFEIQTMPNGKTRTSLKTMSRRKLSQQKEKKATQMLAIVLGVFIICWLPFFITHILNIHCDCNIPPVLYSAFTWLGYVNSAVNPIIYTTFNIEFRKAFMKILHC

Structure (SMILES)	(Escape Loss) % failures to escape (Male, Fischer 344 rats; at CAR 5 mg/kg IP) [%]	Ki [1] [nM]	(Escape Loss) % failures to escape (Male, Fischer 344 rats; at CAR 15 mg/kg IP) [%]	Glass bead expulsion time (Male Charles-River rats; IP, 1.0 mg/kg) [min]	CAR 5 mg/kg IP Administration (% change CAR) (Male, Fischer 344 rats) [%]	CAR 15 mg/kg IP Administration (% change CAR) (Male, Fischer 344 rats) [%]	Glass bead expulsion time (Male Charles-River rats; PO, 40.0 mg/kg) [min]	Glass bead expulsion time (Male Charles-River rats; PO, 10.0 mg/kg) [min]
CC(C)Oc1ccccc1N1CCN(Cc2cccc(C(=O)N3CCCCCCC3)c2)CC1 [Compound 55]	27			13	-93			
CC(C)Oc1ccccc1N1CCN(Cc2cccc(C(=O)N3CCCC(C)(C)C3)c2)CC1 [Compound 57]	25	4.8		22	-86			
CC1CCN(C(=O)c2cccc(CN3CCN(c4ccccc4OC(C)C)CC3)c2)CC1 [Compound 58]	9	9		29	-81			
CC(C)Oc1ccccc1N1CCN(Cc2cccc(C(=O)N3[C@H](C)CCC[C@@H]3C)c2)CC1 [Compound 59, 1-[3-[[4-[2-(1-Methylethoxy)phenyl]-1-piperazinyl]methyl]-benzoyl]-2,6-dimethylpiperidine hydrochloride (3:2)]	10	7.2		43	-72			
COc1cc2c(cc1OC)CN(C(=O)c1cccc(CN3CCN(c4ccccc4OC(C)C)CC3)c1)CC2 [Compound 60]		11	7	18		-93		
CC(C)Oc1ccccc1N1CCN(Cc2cccc(C(=O)N3CCN(c4ccccc4)CC3)c2)CC1 [Compound 62]	23	10.4		21	-28			
CCOC(=O)N1CCN(C(=O)c2cccc(CN3CCN(c4ccccc4OC(C)C)CC3)c2)CC1 [Compound 63]	1	121		41	-20			
CC(C)Oc1ccccc1N1CCN(Cc2cccc(C(=O)N3CCCCC3=O)c2)CC1.O=C(O)/C=C/C(=O)O [Compound 66, 1-[3-[[4-[2-(1-Methylethoxy)phenyl]-1-piperazinyl]methyl]benzoyl]-2-piperidone Fumarate]			0	18		-92		
CCCCN(C)C(=O)c1cccc(CN2CCN(c3ccccc3OC(C)C)CC2)c1 [Compound 70]	2	15		14	-68			
CC(C)Oc1ccccc1N1CCN(Cc2cccc(C(=O)NC3CCCCC3)c2)CC1 [Compound 71]			0	23		-86		
CC(C)Oc1ccccc1N1CCN(Cc2cccc(C(=O)N(C)C3CCCCC3)c2)CC1 [Compound 72]	21			29	-99			
CC(=O)N(C)C(=O)c1cccc(CN2CCN(c3ccccc3OC(C)C)CC2)c1 [Compound 73]	22				-48		25	
CC(C)Oc1ccccc1N1CCN(Cc2cccc(C(N)=O)c2)CC1 [Compound 77]	27	46		12	-89			
CC(C)Oc1cc(F)ccc1N1CCN(Cc2cccc(C(=O)N3CCCCC3)c2)CC1 [Compound 78]	4			28	-82			
CC(C)Oc1cc(F)ccc1N1CCN(Cc2cccc(C(=O)N3CCCCCC3)c2)CC1 [Compound 79]	44	12		17	-86			
CCCc1ccccc1N1CCN(Cc2cccc(C(=O)N3CCCCC3)c2)CC1 [Compound 81]			0	22		-8		
CCCc1ccccc1N1CCN(Cc2cccc(C(=O)N3CCCCCC3)c2)CC1 [Compound 82]		41	0	16		-8		
CCOc1ccccc1N1CCN(Cc2cccc(C(=O)N3CCCCCC3)c2)CC1 [Compound 83]	26			21	-97			

Second part, led by results:

(Escape Loss) % failures to escape (Male, Fischer 344 rats; at CAR 5 mg/kg IP) [%]	Ki [1] [nM]	(Escape Loss) % failures to escape (Male, Fischer 344 rats; at CAR 15 mg/kg IP) [%]	Structure (SMILES)	Glass bead expulsion time (Male Charles-River rats; IP, 1.0 mg/kg) [min]	CAR 5 mg/kg IP Administration (% change CAR) (Male, Fischer 344 rats) [%]	CAR 15 mg/kg IP Administration (% change CAR) (Male, Fischer 344 rats) [%]	Glass bead expulsion time (Male Charles-River rats; PO, 40.0 mg/kg) [min]	Glass bead expulsion time (Male Charles-River rats; PO, 10.0 mg/kg) [min]
	121	17	COc1ccccc1N1CCN(Cc2cccc(C(=O)N3CCCCCCC3=O)c2)CC1 [Compound 86]	22		-27		
	281	7	O=C(c1cccc(CN2CCN(c3ccccc3C(F)(F)F)CC2)c1)N1CCCCC1 [Compound 88]	29		-60		
		0	O=C(c1cccc(CN2CCN(c3ccccc3Cl)CC2)c1)N1CCCCC1 [Compound 89]	16		-68		
5			N#Cc1ccccc1N1CCN(Cc2cccc(C(=O)N3CCCCC3)c2)CC1 [Compound 90]	27	-74			
		3	O=C(c1cccc(CN2CCN(c3cccc(C(F)(F)F)c3)CC2)c1)N1CCCCC1 [Compound 92]	17		-72		
	~100		CC(C)Oc1ccccc1N1CCN(Cc2ccc(C(=O)N3CCCCC3)cc2)CC1.Cl.Cl [Compound 103, 1-[4-[[4-[2-(1-Methylethoxy)phenyl]-1-piperazinyl]methyl]benzoyl]piperidine Dihydrochloride]	43				
2	45		CC(C)Oc1ccccc1N1CCN(Cc2cccc(S(=O)(=O)N3CCCC(C)(C)C3)c2)CC1 [Compound 104]		-4			50
0	18		CC(C)Oc1ccccc1N1CCN(Cc2cccc(S(=O)(=O)N3CCCCC3)c2)CC1 [Compound 105]		-7			10
	16		CC(C)Oc1ccccc1N1CCN(Cc2ccccc2C(=O)N(C)C2CCCC2)CC1 [Compound 112]	11				
	11		CC(C)Oc1ccccc1N1CCN(Cc2ccccc2C(=O)N2CCCCCC2)CC1 [Compound 113]					15
